This note sets out measurements from US20240166617A1, “PHOSPHOINOSITIDE 3 KINASE BETA INHIBITORS AND COMPOSITIONS AND METHODS THEREOF” (Geode Therapeutics Inc., priority 2021, published 2024).

Like-named read-outs stand apart in the source and are kept apart here.

In experiment [1] the test system is phosphorylation of AKT in HCC70 cells. The experiment can be described thus: Cellular assay: phosphorylation of AKT in HCC70 cells (western blotting). The class given is cell-based. Particulars: Homo sapiens, HCC70, 1 h, HCC70 cells, compound 500 nM, 60 min, inhibition of Akt activity from band intensities. A digest of the protocol: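 HCC70 cells treated with compound at 500 nM (0.1% DMSO control) for 60 min at 37 °C; pAKT Ser473 and Thr308 plus total AKT measured by western blot with fluorescent detection. Inhibition from band intensities, binned as + (20–60%), ++ (60–80%), +++ (80–90%), ++++ (>90%).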
A general note: A western blot detects proteins with antibodies after separation by electrophoresis.

The target in a further experiment is T1, PIK3Cb_h (Homo sapiens, UniProt P42338).
T1 construct: purchased Eurofins DiscoveRx Corporation
Description: Enzyme binding assay (KINOMEscan). The note with it: Eurofins DiscoveRx. The method, then: (§1) Kinase enzyme binding affinities of compounds disclosed herein were determined using the KINOMEscan technology performed by Eurofins DiscoveRx Corporation, San Diego, California, USA (www.eurofinsdiscoveryservices.com). Table 2 reports the obtained PIK3β Kd values (nM) of, with the PIK3β Kd being the inhibitor binding constant. Table 3 reports the obtained Kd values (nM), with the Kd being the inhibitor binding constant: […]

The target in the next experiment is T2, PIK3Ca_h (Homo sapiens, UniProt P42336).
T2 construct: purchased Eurofins DiscoveRx Corporation
Description: Enzyme binding assay (KINOMEscan). The note with it: Eurofins DiscoveRx. The method, then:
as §1

A further experiment addresses T3, PIK3Cg_h (Homo sapiens, UniProt P48736).
T3 construct: purchased Eurofins DiscoveRx Corporation
Description: Enzyme binding assay (KINOMEscan). Particulars: Eurofins DiscoveRx. The method, then: as §1

Another experiment has as its target T4, PIK3Cd_h (Homo sapiens, UniProt O00329).
T4 construct: purchased Eurofins DiscoveRx Corporation
T4 sequence (O00329 1-1044): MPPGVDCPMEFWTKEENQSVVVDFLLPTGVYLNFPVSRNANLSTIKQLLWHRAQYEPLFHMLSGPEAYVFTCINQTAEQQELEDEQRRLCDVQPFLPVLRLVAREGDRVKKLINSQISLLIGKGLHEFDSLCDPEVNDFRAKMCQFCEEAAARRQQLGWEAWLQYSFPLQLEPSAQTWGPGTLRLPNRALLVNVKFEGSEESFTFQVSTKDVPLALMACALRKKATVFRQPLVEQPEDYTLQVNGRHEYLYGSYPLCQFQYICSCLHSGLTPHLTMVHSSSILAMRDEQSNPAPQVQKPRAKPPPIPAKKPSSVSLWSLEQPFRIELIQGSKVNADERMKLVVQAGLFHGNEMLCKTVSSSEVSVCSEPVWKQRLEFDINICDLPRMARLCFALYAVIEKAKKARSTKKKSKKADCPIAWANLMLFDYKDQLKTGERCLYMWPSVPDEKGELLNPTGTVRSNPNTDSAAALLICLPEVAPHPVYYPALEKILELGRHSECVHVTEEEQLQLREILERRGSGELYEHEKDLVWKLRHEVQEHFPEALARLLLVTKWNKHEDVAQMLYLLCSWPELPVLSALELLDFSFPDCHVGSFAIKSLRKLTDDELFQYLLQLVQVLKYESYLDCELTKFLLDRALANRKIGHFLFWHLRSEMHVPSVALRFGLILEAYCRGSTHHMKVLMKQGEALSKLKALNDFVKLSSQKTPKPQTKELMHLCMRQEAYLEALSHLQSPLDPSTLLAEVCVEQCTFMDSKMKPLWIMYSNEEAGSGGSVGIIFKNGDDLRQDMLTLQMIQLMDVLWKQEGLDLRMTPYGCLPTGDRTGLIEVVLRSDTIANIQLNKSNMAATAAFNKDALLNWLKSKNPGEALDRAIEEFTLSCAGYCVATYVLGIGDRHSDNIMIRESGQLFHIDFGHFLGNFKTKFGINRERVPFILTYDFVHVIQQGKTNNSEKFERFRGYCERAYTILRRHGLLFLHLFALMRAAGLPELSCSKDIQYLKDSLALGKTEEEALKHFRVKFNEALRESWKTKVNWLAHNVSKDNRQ
The experiment can be described thus: Enzyme binding assay (KINOMEscan). Particulars: Eurofins DiscoveRx. The method, then:
as §1

[2] abbreviates: read-out: Index of AI (HCC70) p-AKT Thr 308.
The mark [3] stands for this setting: read-out: Index of AI (HCC70) p-AKT ser 473.

Broadly, the Kd is a measure of binding affinity in units of concentration.

T1 sequence (P42338 whole entry): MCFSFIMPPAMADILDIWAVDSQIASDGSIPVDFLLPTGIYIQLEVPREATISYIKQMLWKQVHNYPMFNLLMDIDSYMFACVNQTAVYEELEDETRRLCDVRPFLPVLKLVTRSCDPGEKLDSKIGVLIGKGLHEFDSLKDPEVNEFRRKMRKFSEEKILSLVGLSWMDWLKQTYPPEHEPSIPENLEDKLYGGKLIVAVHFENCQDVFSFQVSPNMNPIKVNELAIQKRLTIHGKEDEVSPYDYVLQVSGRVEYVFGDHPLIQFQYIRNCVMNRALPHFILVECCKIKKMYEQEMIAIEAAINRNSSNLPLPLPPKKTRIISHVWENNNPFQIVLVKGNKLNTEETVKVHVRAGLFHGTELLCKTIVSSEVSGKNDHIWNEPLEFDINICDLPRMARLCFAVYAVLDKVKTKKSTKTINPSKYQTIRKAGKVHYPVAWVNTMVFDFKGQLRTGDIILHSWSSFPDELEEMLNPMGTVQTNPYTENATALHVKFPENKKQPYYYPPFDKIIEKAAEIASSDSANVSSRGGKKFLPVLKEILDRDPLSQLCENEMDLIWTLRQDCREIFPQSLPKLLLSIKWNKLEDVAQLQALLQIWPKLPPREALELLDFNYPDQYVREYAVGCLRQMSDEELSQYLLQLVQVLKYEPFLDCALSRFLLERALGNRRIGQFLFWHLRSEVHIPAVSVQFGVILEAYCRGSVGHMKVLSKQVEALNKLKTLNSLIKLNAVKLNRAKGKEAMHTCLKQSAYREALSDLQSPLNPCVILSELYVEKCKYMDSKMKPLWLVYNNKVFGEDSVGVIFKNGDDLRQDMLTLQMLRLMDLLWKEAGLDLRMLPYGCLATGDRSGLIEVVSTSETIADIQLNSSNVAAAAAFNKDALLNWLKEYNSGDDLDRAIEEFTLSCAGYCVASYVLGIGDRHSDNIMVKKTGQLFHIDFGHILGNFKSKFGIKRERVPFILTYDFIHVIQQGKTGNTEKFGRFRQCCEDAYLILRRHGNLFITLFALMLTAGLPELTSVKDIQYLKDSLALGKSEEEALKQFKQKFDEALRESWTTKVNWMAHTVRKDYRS
T3 sequence (P48736 whole entry): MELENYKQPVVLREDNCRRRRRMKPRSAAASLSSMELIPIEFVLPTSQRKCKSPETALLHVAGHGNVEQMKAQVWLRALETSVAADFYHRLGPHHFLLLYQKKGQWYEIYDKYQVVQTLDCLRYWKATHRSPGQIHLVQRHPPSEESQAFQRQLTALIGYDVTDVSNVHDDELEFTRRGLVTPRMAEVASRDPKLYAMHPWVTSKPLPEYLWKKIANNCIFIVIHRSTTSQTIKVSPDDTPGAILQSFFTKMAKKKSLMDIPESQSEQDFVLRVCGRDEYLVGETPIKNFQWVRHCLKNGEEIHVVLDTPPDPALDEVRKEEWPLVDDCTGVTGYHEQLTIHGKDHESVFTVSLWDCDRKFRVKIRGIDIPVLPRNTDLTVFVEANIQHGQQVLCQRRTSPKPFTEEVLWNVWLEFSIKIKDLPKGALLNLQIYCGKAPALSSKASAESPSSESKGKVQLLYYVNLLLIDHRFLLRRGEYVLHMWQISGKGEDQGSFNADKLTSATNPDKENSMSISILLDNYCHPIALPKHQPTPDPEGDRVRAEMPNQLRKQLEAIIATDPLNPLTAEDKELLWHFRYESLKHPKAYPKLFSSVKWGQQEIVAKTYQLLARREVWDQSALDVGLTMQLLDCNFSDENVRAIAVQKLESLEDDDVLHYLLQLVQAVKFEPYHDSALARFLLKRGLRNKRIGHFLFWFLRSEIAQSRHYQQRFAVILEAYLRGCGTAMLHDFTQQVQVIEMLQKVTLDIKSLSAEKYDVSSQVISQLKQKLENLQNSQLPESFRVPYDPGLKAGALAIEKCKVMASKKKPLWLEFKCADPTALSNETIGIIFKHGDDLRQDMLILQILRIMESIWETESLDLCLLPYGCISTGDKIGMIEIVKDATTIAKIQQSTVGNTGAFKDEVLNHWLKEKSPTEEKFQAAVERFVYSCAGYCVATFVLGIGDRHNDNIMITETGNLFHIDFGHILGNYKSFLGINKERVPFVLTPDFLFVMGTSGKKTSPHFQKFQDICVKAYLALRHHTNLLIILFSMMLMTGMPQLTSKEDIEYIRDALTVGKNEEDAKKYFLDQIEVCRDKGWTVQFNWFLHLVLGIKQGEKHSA
T2 sequence (P42336 whole entry): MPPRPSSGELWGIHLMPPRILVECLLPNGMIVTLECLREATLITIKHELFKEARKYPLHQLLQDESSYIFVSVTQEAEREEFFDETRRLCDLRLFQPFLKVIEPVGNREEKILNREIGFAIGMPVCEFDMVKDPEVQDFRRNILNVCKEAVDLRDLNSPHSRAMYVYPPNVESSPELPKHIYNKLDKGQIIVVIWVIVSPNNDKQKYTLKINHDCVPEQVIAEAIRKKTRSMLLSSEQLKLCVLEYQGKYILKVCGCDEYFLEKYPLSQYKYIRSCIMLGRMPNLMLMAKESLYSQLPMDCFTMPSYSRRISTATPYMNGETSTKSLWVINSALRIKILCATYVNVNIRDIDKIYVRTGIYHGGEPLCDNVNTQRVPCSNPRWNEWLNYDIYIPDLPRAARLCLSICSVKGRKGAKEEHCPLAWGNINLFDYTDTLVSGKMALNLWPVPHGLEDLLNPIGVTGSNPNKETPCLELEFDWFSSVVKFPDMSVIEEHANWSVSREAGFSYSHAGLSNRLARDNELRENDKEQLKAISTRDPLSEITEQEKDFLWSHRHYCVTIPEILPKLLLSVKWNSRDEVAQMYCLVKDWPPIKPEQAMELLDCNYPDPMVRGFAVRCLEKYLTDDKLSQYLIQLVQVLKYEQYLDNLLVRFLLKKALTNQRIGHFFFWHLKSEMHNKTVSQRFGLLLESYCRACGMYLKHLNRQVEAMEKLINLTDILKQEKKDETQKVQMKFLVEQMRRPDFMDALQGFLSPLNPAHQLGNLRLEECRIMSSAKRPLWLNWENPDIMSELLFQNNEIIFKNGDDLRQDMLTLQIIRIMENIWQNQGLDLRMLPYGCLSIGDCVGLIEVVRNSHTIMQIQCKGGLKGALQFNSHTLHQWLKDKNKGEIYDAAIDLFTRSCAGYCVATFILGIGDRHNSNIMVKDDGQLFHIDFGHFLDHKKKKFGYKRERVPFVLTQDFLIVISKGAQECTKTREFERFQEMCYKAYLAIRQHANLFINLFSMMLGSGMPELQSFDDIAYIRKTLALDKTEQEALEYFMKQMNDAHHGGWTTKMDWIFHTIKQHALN

For `CC(Nc1cc(F)cc(F)c1)c1cc(O)cc2c(=O)cc(N3CCOCC3)oc12` (stereo not drawn) [Compound 15, 8-(1-((3,5-difluorophenyl)amino)ethyl)-6-hydroxy-2-morpholino-4H-chromen-4-one], the inhibition at 0.5 µM in experiment [1] (setting [2]) and in experiment [1] (setting [3]) was over 90% throughout. Besides, the Kd at PIK3Cb_h was found to be 0.059 nM.

Regarding `CC(Nc1cc(F)cc(F)c1)c1cc(N)cc2c(=O)cc(N3CCOCC3)oc12` (stereo not drawn) [Compound 19, 6-amino-8-(1-((3,5-difluorophenyl)amino)ethyl)-2-morpholino-4H-chromen-4-one], the inhibition at 0.5 µM in experiment [1] (setting [2]) and in experiment [1] (setting [3]) was over 90% throughout. The molecule also showed an equilibrium dissociation constant (Kd) at PIK3Cb_h of 0.067 nM.

With `COC(=O)Cc1cc(C(C)Nc2cc(F)cc(F)c2)c2oc(N3CCOCC3)cc(=O)c2c1` (stereo not drawn) [Compound 25, methyl 2-(8-(1-((3,5-difluorophenyl)amino)ethyl)-2-morpholino-4-oxo-4H-chromen-6-yl)acetate], the inhibition at 0.5 µM in experiment [1] (setting [2]) and in experiment [1] (setting [3]) was over 90% throughout. In addition, binding on PIK3Cb_h was put at a Kd of 0.21 nM.

As to `CC(Nc1cc(F)cc(F)c1)c1cc(C(=O)N2CCC(N(C)C)C2)cc2c(=O)cc(N3CCOCC3)oc12` (stereo not drawn) [Compound 27, 8-(1-((3,5-difluorophenyl)amino)ethyl)-6-(3-(dimethylamino)pyrrolidine-1-carbonyl)-2-morpholino-4H-chromen-4-one], the inhibition at 0.5 µM in experiment [1] (setting [2]) and in experiment [1] (setting [3]) was over 90% each time. For the same molecule, the Kd at PIK3Cb_h came to 0.28 nM.

As to `CC(Nc1cc(F)cc(F)c1)c1cc(C(=O)N2CC[C@@H](N(C)C)C2)cc2c(=O)cc(N3CCOCC3)oc12` (stereo partly drawn) [Compound 29, 8-(1-((3,5-difluorophenyl)amino)ethyl)-6-((R)-3-(dimethylamino)pyrrolidine-1-carbonyl)-2-morpholino-4H-chromen-4-one], the inhibition at 0.5 µM in experiment [1] (setting [2]) and in experiment [1] (setting [3]) was over 90% each time. This molecule also registered an equilibrium dissociation constant (Kd) on PIK3Cb_h of 0.17 nM.

With `CC(Nc1cc(F)cc(F)c1)c1cc(C(=O)N2CC[C@H](N(C)C)C2)cc2c(=O)cc(N3CCOCC3)oc12` (stereo partly drawn) [Compound 30, 8-(1-((3,5-difluorophenyl)amino)ethyl)-6-((S)-3-(dimethylamino)pyrrolidine-1-carbonyl)-2-morpholino-4H-chromen-4-one], the inhibition at 0.5 µM in experiment [1] (setting [2]) and in experiment [1] (setting [3]) was 80 to 90% each time. On PIK3Cb_h, the Kd came to 0.32 nM.

Turning to `CN(C)C(=O)c1cc(CN2CC(C)(C)c3c(F)cc(F)cc32)c2oc(N3CCOCC3)cc(=O)c2c1` [Compound 34, 8-((4,6-difluoro-3,3-dimethylindolin-1-yl)methyl)-N,N-dimethyl-2-morpholino-4-oxo-4H-chromene-6-carboxamide], the inhibition at 0.5 µM in experiment [1] (setting [2]) and in experiment [1] (setting [3]) was 80 to 90% throughout. In addition, binding at PIK3Cb_h was characterised by a dissociation constant (Kd) of 0.37 nM.

As to `CC1Cc2c(F)cc(F)cc2N1C(C)c1cc(C(=O)N(C)C)cc2c(=O)cc(N3CCOCC3)oc12` (stereo not drawn) [Compound 38, 8-(1-(4,6-difluoro-2-methylindolin-1-yl)ethyl)-N,N-dimethyl-2-morpholino-4-oxo-4H-chromene-6-carboxamide], the inhibition at 0.5 µM in experiment [1] (setting [2]) and in experiment [1] (setting [3]) was over 90% each time. The molecule also gave a dissociation constant Kd at PIK3Cb_h of 0.52 nM.

Turning to `CN(C)CCNC(=O)c1cc(CN2CCc3c(F)cc(F)cc32)c2oc(N3CCOCC3)cc(=O)c2c1` [Compound 39, 8-((4,6-difluoroindolin-1-yl)methyl)-N-(2-(dimethylamino)ethyl)-2-morpholino-4-oxo-4H-chromene-6-carboxamide], the inhibition at 0.5 µM in experiment [1] (setting [2]) and in experiment [1] (setting [3]) was over 90% throughout. The molecule further yielded a dissociation constant (Kd) on PIK3Cb_h of 0.072 nM.

For the molecule `O=C(c1cc(CN2CCc3c(F)cc(F)cc32)c2oc(N3CCOCC3)cc(=O)c2c1)N1CCCC1` [Compound 42, 8-((4,6-difluoroindolin-1-yl)methyl)-2-morpholino-6-(pyrrolidine-1-carbonyl)-4H-chromen-4-one], the inhibition at 0.5 µM in experiment [1] (setting [2]) and in experiment [1] (setting [3]) was over 90% in each case. At PIK3Cb_h, the Kd is 0.26 nM.

For `CN1CCN(C(=O)c2cc(CN3CCc4c(F)cc(F)cc43)c3oc(N4CCOCC4)cc(=O)c3c2)CC1` [Compound 44, 8-((4,6-difluoroindolin-1-yl)methyl)-6-(4-methylpiperazine-1-carbonyl)-2-morpholino-4H-chromen-4-one], the inhibition at 0.5 µM in experiment [1] (setting [2]) and in experiment [1] (setting [3]) was 80 to 90% each time. On PIK3Cb_h, this molecule returned a Kd of 1.3 nM.

Consider `C[C@@H](Nc1cc(F)cc(F)c1)c1cc(C(=O)N2CC[C@@H](N(C)C)C2)cn2c(=O)cc(N3CCOCC3)nc12` [Compound 48-P3, 9-((R)-1-((3,5-difluorophenyl)amino)ethyl)-7-((R)-3-(dimethylamino)pyrrolidine-1-carbonyl)-2-morpholino-4H-pyrido[1,2-a]pyrimidin-4-one], for which the Kd turned out to be 92 nM on PIK3Ca_h, 1100 nM on PIK3Cg_h and 8.9 nM at PIK3Cd_h.

For the molecule `C[C@@H](Nc1cc(F)cc(F)c1)c1cc(C(=O)N2CC[C@H](N(C)C)C2)cn2c(=O)cc(N3CCOCC3)nc12` [Compound 48-P4, 9-((R)-1-((3,5-difluorophenyl)amino)ethyl)-7-((S)-3-(dimethylamino)pyrrolidine-1-carbonyl)-2-morpholino-4H-pyrido[1,2-a]pyrimidin-4-one], the Kd stood at 190 nM at PIK3Ca_h, 1600 nM on PIK3Cg_h and 18 nM at PIK3Cd_h.

`CC(Nc1cc(F)cc(F)c1)c1cc(C(=O)N2CC(N(C)C)C2)cn2c(=O)cc(N3CCOCC3)nc12` (stereo not drawn) [Compound 49, 9-(1-((3,5-difluorophenyl)amino)ethyl)-7-(3-(dimethylamino)azetidine-1-carbonyl)-2-morpholino-4H-pyrido[1,2-a]pyrimidin-4-one]: the inhibition at 0.5 µM in experiment [1] (setting [2]) and in experiment [1] (setting [3]) was 60 to 80% in each case. The molecule also returned a Kd on PIK3Cb_h of 0.67 nM.

Regarding `C[C@@H](Nc1cc(F)cc(F)c1)c1cc(C(=O)N2CC[C@@H](N(C)C)C2)cn2c(=O)cc(N3CCOCC3)nc12` [Compound 50, 9-((R)-1-((3,5-difluorophenyl)amino)ethyl)-7-((R)-3-(dimethylamino)pyrrolidine-1-carbonyl)-2-morpholino-4H-pyrido[1,2-a]pyrimidin-4-one], the inhibition at 0.5 µM in experiment [1] (setting [2]) and in experiment [1] (setting [3]) was over 90% each time. The dissociation constant Kd on PIK3Cb_h stood at 0.11 nM.

As for `C[C@@H](Nc1cc(F)cc(F)c1)c1cc(C(=O)N2CC[C@H](N(C)C)C2)cn2c(=O)cc(N3CCOCC3)nc12` [Compound 51, 9-((R)-1-((3,5-difluorophenyl)amino)ethyl)-7-((S)-3-(dimethylamino)pyrrolidine-1-carbonyl)-2-morpholino-4H-pyrido[1,2-a]pyrimidin-4-one], the inhibition at 0.5 µM in experiment [1] (setting [2]) and in experiment [1] (setting [3]) was over 90% throughout. At PIK3Cb_h, this molecule returned an equilibrium dissociation constant (Kd) of 0.12 nM.

As to `Cc1cc(C(C)N2c3cc(F)cc(F)c3CC2C)c2nc(N3CCOCC3)cc(=O)n2c1` (stereo not drawn) [Compound 58, 9-(1-(4,6-difluoro-2-methylindolin-1-yl)ethyl)-7-methyl-2-morpholino-4H-pyrido[1,2-a]pyrimidin-4-one], the inhibition at 0.5 µM in experiment [1] (setting [2]) and in experiment [1] (setting [3]) was 80 to 90% throughout. Binding at PIK3Cb_h was put at a Kd of 2 nM.

Regarding `Cc1cc(C(C)N2CCc3c(F)cc(F)cc32)c2nc(N3CCOCC3)cc(=O)n2c1` (stereo not drawn) [Compound 59, 9-(1-(4,6-difluoroindolin-1-yl)ethyl)-7-methyl-2-morpholino-4H-pyrido[1,2-a]pyrimidin-4-one], the inhibition at 0.5 µM in experiment [1] (setting [2]) and in experiment [1] (setting [3]) was 80 to 90% each time. The molecule further came in with an equilibrium dissociation constant (Kd) on PIK3Cb_h of 0.61 nM.
